Where two headings read alike, the source gives them in different places.
Tests used:
[1] = test system: chronic relapsing experimental autoimmune encephalomyelitis (R-EAE) in SJL/J mice; settings: mouse, in vivo
RRMS = settings: cited from earlier work
class II MHC molecules = settings: cited from earlier work

| Compound | rate of induced relapse with PLP reimmunization following CPA treatment [1] [%] | spontaneous relapse rate of RR-EAE following CPA treatment [1] [%] | cessation of EAE activity, share of animals ([1]; 200 mg/kg) [%] | induced relapse rate [1] [%] | rate of cessation of EAE activity by CPA [1] [%] | spontaneous relapse rate [1] [%] | time of treatment to reduce the number of lesions and relapses (RRMS; 20 mg GA, compared to placebo controls) | time of treatment to reduce the number of lesions and relapses (RRMS; 40 mg daily, compared to controls) | binding affinity to class II MHC molecules (class II MHC molecules) |
| --- | --- | --- | --- | --- | --- | --- | --- | --- | --- |
| O=P1(N(CCCl)CCCl)NCCCO1 (stereo not drawn) [CPA, N,N-bis(2-chloroethyl)-1,3,2-oxazaphosphinan-2-amine 2-oxide] | 70 | 30 | 95 |  |  |  |  |  |  |
| glatiramer acetate |  |  |  | 10 | 95 | 2 | approximately 3 months | less than 3 months | binds with high affinity |
